Source: patent US20260102407A1, “TREATMENT METHODS” (priority 2020, published 2026)

Tests used:
[1] = system: FosB; assay: Immunohistochemical staining of rat retina, FosB; type: in vivo; conditions: lasered rat retinas
From the text: Rat choroidal laser injury model. Male Brown Norway pigmented rats (8-14 week-old) were anesthetized by an intramuscular injection of Rompun® (xylazine)/Imalgene® (ketamine). Pupils were dilated by instillation of one drop of 0.5% tropicamide before laser burn. Six burns were created in both eyes on Day 0 by applying 170 mW of 532 nm laser light (Viridis laser, Quantel, France) on 75 μm spots around the optic nerve, between the main retinal vessel branches, for 0.1s, through the slit lamp and contact lens. Production of a bubble at the time of laser application confirmed the rupture of Bruch's membrane. […] After anaesthesia, 10% sodium fluorescein (250 μl/100 g body weight) was injected subcutaneously, and ocular fluorescence was recorded 10 min after dye injection. Fluorescein leakage was evaluated on Days 14 and 21 in the angiograms by two examiners masked to the study groups and graded for fluorescein intensity as follows: score 0: no leakage; 1: slightly stained; 2: moderately stained; 3: strongly stained.
Immunohistochemical staining of rat retina. […] IOD of positive staining (red chromogen) was assessed for CD31, VEGF-A165, pERK, FosB and VCAM-1 using Image-Pro Plus software (Cybernetics, Bethesda, MD). IOD in IPL and INL was quantified for CD31; OPL to OS for VEGF-A165; INL to ONL for pERK; GCL to OS for FosB; OLM for VCAM-1, using Image-Pro Plus. […]

[2] = system: plasma levels of IL-1β, IL-2, IL-6, IL-4, IL-10; assay: Collagen antibody-induced arthritis, plasma cytokine levels; type: in vivo, mouse; conditions: CAIA mice; 30 mg/kg
[3] = system: p-SAPK/JNK; assay: Western blot, IL-1β-inducible p-SAPK/JNK in HMEC-1; type: cell-based, human; conditions: 1-30 μM
Method: Western blot analysis with extracts of cells treated with IL-13. HMEC-1 (80-90% confluency) were arrested in serum-free MCDB131 medium (Invitrogen, MD) without any growth factor for 48 h. Cells were treated with 30 μM compound in serum-free medium for 4 h, and incubated with 20 ng/ml IL-1β (Sigma, cat. SRE3083) in serum-free medium with the same concentration of compound for up to 4 h, unless otherwise indicated. Total protein was harvested as previously described using RIPA buffer with protease inhibitors. Proteins were resolved on 4-20% (w/v) SDS-polyacrylamide gradient gels and transferred to Immobilon-P PVDF membranes. […] Chemiluminescence was detected using the Western Lightning Chemiluminescence system and ImageQuant™ LAS 4000 biomolecular imager. Band intensity in images generated with the LAS 4000 using the same settings were quantified by NIH ImageJ.

[4] = Solubility in water; type: physicochemical

Which results are given for `CCOC(=O)Nc1ccc2c(c1)C(=O)N(CC)c1ccccc1O2` [BT2, (10-ethyl-11-oxo-10,11-dihydro-dibenzo[b,f][1,4]oxazepin-2-yl)-carbamic acid ethyl ester]?
retinal FosB immunostaining [1]: inhibited retinal FosB immunostaining; plasma level of IL-1β [2]: reduced plasma levels of IL-1β, IL-2 and IL-6 to normal levels; plasma level of IL-2 [2]: reduced plasma levels of IL-1β, IL-2 and IL-6 to normal levels; plasma level of IL-4 [2]: did not change; plasma level of IL-6 [2]: reduced plasma levels of IL-1β, IL-2 and IL-6 to normal levels; plasma level of IL-10 [2]: did not change; IL-1β-inducible p-SAPK/JNK [3]: no effect; solubility in water [4]: poorly soluble in water
